Among the data in patent publication US4971975A (priority 1987, dated 1990) are IC50 values, retold here.

Structures can show the parent of a compound that is named as a salt. Where two headings read alike, the source gives them in different places.

The target of assay [1] is muscarinic receptors. In words: Radio ligand binding: displacement of the muscarinic agonist 3H-OXO-M from rat cerebral cortex membranes. The arrangement: species or system Hooded Lister rats. The settings on record: displacement of agonist 3H-OXO-M (2 nM), 2 mM magnesium chloride, 37° C., 30 min.
The target of assay [2] is muscarinic receptors. It is filed as binding, Hooded Lister rats. The settings on record: displacement of antagonist 3H-QNB (0.27 nM), rat cerebral cortex membranes, 37° C., 30 min.

The IC50 is the concentration needed to halve the response being measured. Read a low IC50 as greater potency. As for `c1nnc(C23CCCN(CC2)C3)o1` (centres unmarked) [Compound E14, 5-(1,3,4-Oxadiazol-2-yl)-1-azabicyclo[3.2.1]octane oxalate salt], the IC50 in assay [1] came out at 160 nM; in assay [2], 9000 nM.
As to `c1coc(C23CCCN(CC2)C3)n1` (centres unmarked) [Compound E12, 5-(1,3-Oxazol-2-yl)-1-azabicyclo[3.2.1]octane oxalate salt], the half-inhibitory concentration (IC50) is 145 nM in assay [1] and 15000 nM in assay [2].
For `c1cc(C23CCCN(CC2)C3)on1` (centres unmarked) [Compound E15, 5-(1,2-Oxazol-5-yl)-1-azabicyclo[3.2.1]octane oxalate salt], in that order: 130 nM and 7800 nM.
For `Cc1nnc(C23CCCN(CC2)C3)o1` (centres unmarked) [Compound E13, 5-(2-Methyl-1,3,4-oxadiazol-5-yl)-1-azabicyclo3.2.1]octane oxalate salt], in that order: 39 nM and 9400 nM.
In the same order, the values of `Cc1nnc(C23CCN(CC2)C3)o1` [Compound E17, 4-(2-Methyl-1,3,4-oxadiazol-5-yl)-1-azabicyclo[2.2.1]heptane oxalate salt] are 230 nM and 48000 nM.
As for `Cc1noc(C23CCCN(CC2)C3)n1` (centres unmarked) [Compound E10, 5-(3-Methyl-1,2,4-oxadiazol-5-yl)-1-azabicyclo[3.2.1]octane oxalate salt], the IC50 in assay [1] was 17 nM; in assay [2], 4000 nM.
In the same order, the values of `c1coc(C23CCCN(CC2)C3)c1` (centres unmarked) [Compound E21, 5-(Fur-2-yl)-1-azabicyclo[3.2.1]octane hydrochloride salt] are 34 nM and 3800 nM.
For `COC(=O)C12CCN(CC1)C2` [Compound E6, Methyl 1-azabicyclo[2.2.1]hept-4-ylcarboxylate oxalate salt], in that order: 42 nM and 29000 nM.
In the same order, the values of `Cc1noc(C23CCN(CC2)C3)n1` [Compound E11, 4-(3-Methyl-1,2,4-oxadiazol-5-yl)-1-azabicyclo[2.2.1]-heptane oxalate salt] are 93 nM and 14000 nM.
In the case of `COC(=O)C12CCCN(CC1)C2` (centres unmarked) [Compound E3, Methyl 1-azabicyclo[3.2.1]oct-5-ylcarboxylate oxalate salt], the IC50 in assay [1] stood at 14 nM; in assay [2], 6700 nM.
